From patent US10413505B1, “Pharmaceutical compositions and methods of using the same” (priority 2017, dated 2019)
Marks after values point to notes of the source that are not given here.

What was measured:
[1] = Example 2 plasma pharmacokinetics, normal renal function vs severe renal impairment; conditions: single intranasal 160 mg cocaine HCl, plasma
[2] = Example 2 urinary pharmacokinetics, normal renal function vs severe renal impairment; conditions: single intranasal 160 mg cocaine HCl; for 0 to 32 hour urinary recovery (geometric mean) / 0 to 32 hour urinary recovery (mean) / 0 to 32 hour urinary recovery (median): metabolites as cocaine equivalents
Protocol: For the urine analysis of cocaine, BE, and EME, individual urinary recoveries for each analyte were determined over each collection interval as the product of the urine concentration times the urine volume. The total recoveries were determined as the sum of the recoveries over all the intervals. Total urinary recoveries were also expressed as the percentage of the administered dose, after correction for the molecular weight of each analyte. The renal clearances of cocaine, BE, and EME were determined as the urinary recovery (in μg) divided by the plasma AUC over the same time interval (the longest period for which both plasma and urine measurements were available).
Urine was collected prior to dosing and from 0-2, 2-4, 4-8, 8-12, 12-24, and 24-32 hours after the beginning of dose application. […] Testing methods used were consistent with those used by inVentiv Health Clinical Lab, Inc., Miami, Fla., U.S.A. Urinary pharmacokinetic parameters included total urinary recovery (μg), urinary recovery as a percentage of dose, and CLr.

[3] = Example 3 urinary pharmacokinetics, normal hepatic function vs hepatic impairment; assay type: in vivo, human; conditions: for Urine Recovery as % of Dose, Geomean / Urine Recovery as % of Dose, Mean: 0-32 h, single intranasal dose; for CLr Geomean / CLr Mean: Table 26
Protocol: Urine was collected prior to dosing and from 0-2, 2-4, 4-8, 8-12, 12-24, and 24-32 hours after beginning of dose application. […] Urinary pharmacokinetic parameters included total urinary recovery (μg), urinary recovery as a percentage of dose, and CLr.

[4] = severe renal impairment, listed as Ecgonine Methyl Ester
[5] = normal hepatic function, single intranasal 160 mg cocaine HCl
[6] = subjects with hepatic impairment
[7] = subjects with hepatic impairment, 32 hours post administration
[8] = subjects with hepatic impairment, Table 30
[9] = subjects with normal hepatic function

## COC(=O)[C@@H]1[C@H]2CC[C@@H](C[C@@H]1O)N2C [EME, ecgonine methyl ester]
[1]; normal renal function
  AUC0→t (Geometric mean): 41.8 ng·h/mL
  AUC0→t (Max): 231 ng·h/mL
  AUC0→t (Mean): 64.0 ng·h/mL
  AUC0→t (Median): 46.3 ng·h/mL
  AUC0→t (Min): 9.3 ng·h/mL
  AUC0→∞ (Geometric mean): 79.3 ng·h/mL
  AUC0→∞ (Max): 241 ng·h/mL
  AUC0→∞ (Mean): 94.5 ng·h/mL
  AUC0→∞ (Median): 66.8 ng·h/mL
  AUC0→∞ (Min): 44.4 ng·h/mL
  Clast (Geometric mean): 1.505 ng/mL
  Clast (Max): 2.58 ng/mL
  Clast (Mean): 1.583 ng/mL
  Clast (Median): 1.42 ng/mL
  Clast (Min): 1.070 ng/mL
  Cmax (Geometric mean): 5.8 ng/mL
  Cmax (Max): 19.2 ng/mL
  Cmax (Mean): 7.5 ng/mL
  Cmax (Min): 1.8 ng/mL
  Tlast (Geometric mean): 12.3 h
  Tlast (Max): 32.0 h
  Tlast (Mean): 13.5 h
  Tlast (Median): 12.0 h
  Tlast (Min): 480 min
  Tmax (Geometric mean): 2.196 h
  Tmax (Max): 4.00 h
  Tmax (Mean): 2.698 h
  Tmax (Median): 3.0 h
  Tmax (Min): 20 min
  t1/2 (Geometric mean): 5.02 h
  t1/2 (Max): 6.67 h
  t1/2 (Mean): 5.12 h
  t1/2 (Median): 5.53 h
  t1/2 (Min): 217 min
[1]; severe renal impairment
  AUC0→t (Geometric mean): 180.2 ng·h/mL
  AUC0→t (Max): 382 ng·h/mL
  AUC0→t (Mean): 201.1 ng·h/mL
  AUC0→t (Median): 196 ng·h/mL
  AUC0→t (Min): 61.0 ng·h/mL
  AUC0→∞ (Geometric mean): 244.5 ng·h/mL
  AUC0→∞ (Max): 527 ng·h/mL
  AUC0→∞ (Mean): 267.5 ng·h/mL
  AUC0→∞ (Median): 242 ng·h/mL
  AUC0→∞ (Min): 143.9 ng·h/mL
  Clast (Geometric mean): 2.218 ng/mL
  Clast (Max): 5.85 ng/mL
  Clast (Mean): 2.46 ng/mL
  Clast (Median): 1.93 ng/mL
  Clast (Min): 1.51 ng/mL
  Cmax (Geometric mean): 10.3 ng/mL
  Cmax (Max): 20.5 ng/mL
  Cmax (Mean): 11.9 ng/mL
  Cmax (Median): 11.5 ng/mL
  Cmax (Min): 3.2 ng/mL
  Tlast (Geometric mean): 31.5 h
  Tlast (Max): 32.0 h
  Tlast (Mean): 31.5 h
  Tlast (Median): 32.0 h
  Tlast (Min): 1680 min
  Tmax (Geometric mean): 3.715 h
  Tmax (Max): 12.00 h
  Tmax (Mean): 4.53 h
  Tmax (Median): 4.00 h
  Tmax (Min): 90 min
  t1/2 (Geometric mean): 13.16 h
  t1/2 (Max): 25.70 h
  t1/2 (Mean): 13.97 h
  t1/2 (Median): 12.27 h
  t1/2 (Min): 488 min
[2]; normal renal function
  0-32 h Urinary Recovery (geometric mean): 894.9 µg
  0-32 h Urinary Recovery (mean): 1095 µg
  0-32 h Urinary Recovery (median): 892.8 µg
  Renal Clearance, CLr (geometric mean): 18.1 L/h
  Renal Clearance, CLr (mean): 19.1 L/h
  Renal Clearance, CLr (median): 21.4 L/h
  Renal Clearance, geometric mean: 302.2 mL/min
  Renal Clearance, mean: 317.8 mL/min
  Renal Clearance, median: 356.1 mL/min
  0 to 32 hour urinary recovery (geometric mean): 0.954 % of administered dose
  0 to 32 hour urinary recovery (mean): 1.17 % of administered dose
  0 to 32 hour urinary recovery (median): 0.952 % of administered dose
[2]; normal renal function, listed as Ecgonine Methyl Ester
  0 to 32 hour urinary recovery (mean): 1.167 % of administered dose
[2]; severe renal impairment
  0-32 h Urinary Recovery (geometric mean): 1177.8 µg
  0-32 h Urinary Recovery (mean): 1425 µg
  0-32 h Urinary Recovery (median): 1104 µg
  Renal Clearance, CLr (geometric mean): 4.23 L/h
  Renal Clearance, CLr (mean): 4.95 L/h
  Renal Clearance, CLr (median): 4.05 L/h
  Renal Clearance, geometric mean: 70.6 mL/min
  Renal Clearance, mean: 82.5 mL/min
  Renal Clearance, median: 67.6 mL/min
  0 to 32 hour urinary recovery (geometric mean): 1.26 % of administered dose
  0 to 32 hour urinary recovery (mean): 1.52 % of administered dose
  0 to 32 hour urinary recovery (median): 1.177 % of administered dose
[2]; [4]
  0 to 32 hour urinary recovery (geometric mean): 1.255 % of administered dose
  0 to 32 hour urinary recovery (mean): 1.519 % of administered dose
[3]; Impaired hepatic function
  Urine Recovery as % of Dose, Geomean: 2.43 % of Dose
  Urine Recovery as % of Dose, Mean: 3.51 % of Dose
  CLr Geomean: 10.2 L/h
  CLr Mean: 10.9 L/h
[3]; Normal hepatic function
  Urine Recovery as % of Dose, Geomean: 0.93 % of Dose
  Urine Recovery as % of Dose, Mean: 1.12 % of Dose
  CLr Geomean: 14.6 L/h
  CLr Mean: 17.2^d L/h
[3]; [5]
  0-32 h Urinary Recovery (geometric mean): 875.2 µg
  0-32 h Urinary Recovery (mean): 1048.23 µg
  0-32 h Urinary Recovery (median): 1164.3 µg
[3]; [6]
  Renal Clearance, geometric mean: 169.75 mL/min
  Renal Clearance, mean: 181.23 mL/min
  Renal Clearance, median: 160.92 mL/min
[3]; [7]
  0-32 h Urinary Recovery (geometric mean): 2278.1 µg
  0-32 h Urinary Recovery (mean): 3294 µg
  0-32 h Urinary Recovery (median): 2249.7 µg
[3]; [8]
  Renal Clearance, geometric mean: 169.753 mL/min
  Renal Clearance, mean: 181.233 mL/min
  Renal Clearance, median: 160.92 mL/min
[3]; [9]
  Renal Clearance, geometric mean: 243.011 mL/min
  Renal Clearance, mean: 286.128 mL/min
  Renal Clearance, median: 219.782 mL/min
